Data from US20250304811A1, “Ink Jet Ink Composition And Recording Method” (SEIKO EPSON CORPORATION, priority 2024, published 2025).

Experiment: Solubility in water
Details: 20° C., 100 g of water

## COCCOC [ethylene glycol dimethyl ether]
  miscibility with water: completely miscible with water
